One compound from paper PMC10641814 (Journal of Medicinal Chemistry, 2023) can be followed below.

This experiment deals with T1, h5-HT3R (Homo sapiens, UniProt P46098).
T1 construct: expressed in transfected cells; host or cells: CHO
T1 sequence (P46098 24-478): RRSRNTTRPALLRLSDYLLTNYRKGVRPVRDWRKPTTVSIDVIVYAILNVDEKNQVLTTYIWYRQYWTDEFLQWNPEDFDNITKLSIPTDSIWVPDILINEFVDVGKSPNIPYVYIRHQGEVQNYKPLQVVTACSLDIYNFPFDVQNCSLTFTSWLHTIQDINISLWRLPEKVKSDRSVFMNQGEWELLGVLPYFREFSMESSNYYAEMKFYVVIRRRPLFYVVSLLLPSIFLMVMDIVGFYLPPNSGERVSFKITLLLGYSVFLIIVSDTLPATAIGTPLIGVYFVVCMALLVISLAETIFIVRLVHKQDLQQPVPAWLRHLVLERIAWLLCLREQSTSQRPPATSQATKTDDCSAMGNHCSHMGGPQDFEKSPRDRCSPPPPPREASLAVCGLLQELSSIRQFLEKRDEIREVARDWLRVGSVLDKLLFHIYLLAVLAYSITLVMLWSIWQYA
In words: 5-HT3R radioligand binding ([3H]-BRL 43694) in CHO cells.

The term Ki denotes a measure of affinity in units of concentration, obtained from inhibition or displacement. Usually inhibition stands for the drop in the measured response relative to a control, in per cent.

Each structure is given as a SMILES string. Where only a bound is given, the exact number is not on record here.

As for `Cl.Clc1cccc(Cn2ccc3c(N4CCNCC4)nc4ccccc4c32)c1` [PZ-1922, 1-(3-Chlorobenzyl)-4-(piperazin-1-yl)-1H-pyrrolo[3,2-c]quinoline Hydrochloride], the Ki (0.5 nM [3H]-BRL 43694, CHO cells expressing h5-HT3R, two independent experiments) was determined as 0.45 nM. The inhibition at 1 µM (read-out: inhibition of 5-HT3R binding in selectivity screen) is over 50%.
